# In ChEMBL document CHEMBL4507318, “Data for DCP probe BAY-985” (2021):
# Assays:
# [1] = target: Homeodomain-interacting protein kinase 1 (Homo sapiens) (UniProt Q86Z02)
# [2] = target: Alpha-1D adrenergic receptor (Homo sapiens) (UniProt P25100); conditions: Compound concentration 10.0 uM
# [3] = target: Discoidin domain-containing receptor 2 (Homo sapiens) (UniProt Q16832)
# [4] = target: SRSF protein kinase 1 (Homo sapiens) (UniProt Q96SB4)
# [5] = target: Microtubule-associated serine/threonine-protein kinase 1 (Homo sapiens) (UniProt Q9Y2H9)
# [6] = target: Ephrin type-A receptor 7 (Homo sapiens) (UniProt Q15375)
# [7] = target: Serine/threonine-protein kinase Nek5 (Homo sapiens) (UniProt Q6P3R8)
# [8] = target: Dual specificity mitogen-activated protein kinase kinase 5 (Homo sapiens) (UniProt Q13163)
# [9] = target: cAMP-dependent protein kinase catalytic subunit PRKX (Homo sapiens) (UniProt P51817)
# [10] = target: Serine/threonine-protein kinase PLK4 (Homo sapiens) (UniProt O00444)
# [11] = target: Activin receptor type-1 (Homo sapiens) (UniProt Q04771)
# [12] = target: Cyclin-dependent kinase 8 (Homo sapiens) (UniProt P49336)
# [13] = target: D(2) dopamine receptor (Homo sapiens) (UniProt P14416); conditions: Compound concentration 10.0 uM
# [14] = target: Cyclin-dependent kinase 14 (Homo sapiens) (UniProt O94921)
# [15] = target: Macrophage colony-stimulating factor 1 receptor (Homo sapiens) (UniProt P07333)
# [16] = target: Alpha-1A adrenergic receptor (Homo sapiens) (UniProt P35348); conditions: Compound concentration 10.0 uM
# [17] = target: Interleukin-1 receptor-associated kinase 1 (Homo sapiens) (UniProt P51617)
# [18] = target: Tyrosine-protein kinase Fer (Homo sapiens) (UniProt P16591)
# [19] = target: Wee1-like protein kinase 2 (Homo sapiens) (UniProt P0C1S8)
# [20] = target: Serine/threonine-protein kinase TBK1 (Homo sapiens) (UniProt Q9UHD2)
# [21] = tested on: Tyrosine-protein kinase ABL1 (Homo sapiens), P00519 [H396P]
# [22] = target: Serine/threonine-protein kinase 32C (Homo sapiens) (UniProt Q86UX6)
# [23] = target: Ephrin type-A receptor 8 (Homo sapiens) (UniProt P29322)
# [24] = target: Cyclin-dependent kinase 16 (Homo sapiens) (UniProt Q00536)
# [25] = target: MAP kinase-interacting serine/threonine-protein kinase 2 (Homo sapiens) (UniProt Q9HBH9)
# [26] = target: Serine/threonine-protein kinase Nek4 (Homo sapiens) (UniProt P51957)
# [27] = target: Homeodomain-interacting protein kinase 4 (Homo sapiens) (UniProt Q8NE63)
# [28] = target: Fibroblast growth factor receptor 4 (Homo sapiens) (UniProt P22455)
# [29] = target: MAP/microtubule affinity-regulating kinase 3 (Homo sapiens) (UniProt P27448)
# [30] = target: Mitogen-activated protein kinase kinase kinase kinase 5 (Homo sapiens) (UniProt Q9Y4K4)
# [31] = target: Tyrosine-protein kinase SYK (Homo sapiens) (UniProt P43405)
# [32] = tested on: Tyrosine-protein kinase ABL1 (Homo sapiens), P00519 [Q252H]
# [33] = target: Casein kinase II subunit alpha' (Homo sapiens) (UniProt P19784)
# [34] = target: Dual specificity mitogen-activated protein kinase kinase 4 (Homo sapiens) (UniProt P45985)
# [35] = tested on: Tyrosine-protein kinase ABL1 (Homo sapiens), P00519 [M351T]
# [36] = tested on: Tyrosine-protein kinase ABL1 (Homo sapiens), P00519 [F317L]
# [37] = target: Serine/threonine-protein kinase Sgk2 (Homo sapiens) (UniProt Q9HBY8)
# [38] = target: Homeodomain-interacting protein kinase 3 (Homo sapiens) (UniProt Q9H422)
# [39] = target: 3-phosphoinositide-dependent protein kinase 1 (Homo sapiens) (UniProt O15530)
# [40] = target: Bone morphogenetic protein receptor type-1A (Homo sapiens) (UniProt P36894)
# [41] = target: Serine/threonine-protein kinase ULK1 (Homo sapiens) (UniProt O75385)
# [42] = target: STE20-like serine/threonine-protein kinase (Homo sapiens) (UniProt Q9H2G2)
# [43] = target: Mitogen-activated protein kinase kinase kinase 6 (Homo sapiens) (UniProt O95382)
# [44] = target: Receptor tyrosine-protein kinase erbB-2 (Homo sapiens) (UniProt P04626)
# [45] = target: Testis-specific serine/threonine-protein kinase 1 (Homo sapiens) (UniProt Q9BXA7)
# [46] = Compound concentration 1000.0 nM
# [47] = Compound concentration 100.0 nM
# Casein kinase II subunit alpha' (Homo sapiens), sequence (P19784 whole entry, looked up): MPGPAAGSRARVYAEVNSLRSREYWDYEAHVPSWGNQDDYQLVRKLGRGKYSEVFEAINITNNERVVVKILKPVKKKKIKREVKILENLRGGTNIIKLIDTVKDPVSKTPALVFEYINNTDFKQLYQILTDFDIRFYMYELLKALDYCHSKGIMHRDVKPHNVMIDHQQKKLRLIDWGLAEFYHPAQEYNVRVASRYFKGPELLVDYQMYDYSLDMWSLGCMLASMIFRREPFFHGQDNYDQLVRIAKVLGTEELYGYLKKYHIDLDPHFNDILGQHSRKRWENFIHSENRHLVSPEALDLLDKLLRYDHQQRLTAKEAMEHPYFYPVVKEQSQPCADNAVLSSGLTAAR
# Interleukin-1 receptor-associated kinase 1 (Homo sapiens), sequence (P51617 whole entry, looked up): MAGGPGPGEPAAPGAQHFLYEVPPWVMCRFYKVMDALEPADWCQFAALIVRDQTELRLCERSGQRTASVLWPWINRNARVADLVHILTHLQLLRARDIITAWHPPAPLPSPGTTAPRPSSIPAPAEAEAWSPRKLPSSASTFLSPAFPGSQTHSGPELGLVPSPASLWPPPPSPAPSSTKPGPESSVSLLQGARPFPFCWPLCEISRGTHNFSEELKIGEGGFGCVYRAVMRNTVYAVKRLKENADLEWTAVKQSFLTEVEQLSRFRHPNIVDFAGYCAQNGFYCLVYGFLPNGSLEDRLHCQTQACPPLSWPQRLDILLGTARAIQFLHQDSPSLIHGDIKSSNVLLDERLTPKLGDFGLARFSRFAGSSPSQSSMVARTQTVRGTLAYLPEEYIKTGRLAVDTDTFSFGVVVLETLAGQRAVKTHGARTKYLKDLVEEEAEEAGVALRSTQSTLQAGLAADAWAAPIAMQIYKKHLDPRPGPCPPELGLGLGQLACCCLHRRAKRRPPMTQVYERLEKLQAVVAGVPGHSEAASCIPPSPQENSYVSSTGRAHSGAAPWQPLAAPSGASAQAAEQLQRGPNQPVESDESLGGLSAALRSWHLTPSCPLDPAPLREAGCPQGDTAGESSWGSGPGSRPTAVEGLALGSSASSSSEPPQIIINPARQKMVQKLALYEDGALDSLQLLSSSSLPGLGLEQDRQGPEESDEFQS
# Ephrin type-A receptor 7 (Homo sapiens), sequence (Q15375 28-998 limits assumed): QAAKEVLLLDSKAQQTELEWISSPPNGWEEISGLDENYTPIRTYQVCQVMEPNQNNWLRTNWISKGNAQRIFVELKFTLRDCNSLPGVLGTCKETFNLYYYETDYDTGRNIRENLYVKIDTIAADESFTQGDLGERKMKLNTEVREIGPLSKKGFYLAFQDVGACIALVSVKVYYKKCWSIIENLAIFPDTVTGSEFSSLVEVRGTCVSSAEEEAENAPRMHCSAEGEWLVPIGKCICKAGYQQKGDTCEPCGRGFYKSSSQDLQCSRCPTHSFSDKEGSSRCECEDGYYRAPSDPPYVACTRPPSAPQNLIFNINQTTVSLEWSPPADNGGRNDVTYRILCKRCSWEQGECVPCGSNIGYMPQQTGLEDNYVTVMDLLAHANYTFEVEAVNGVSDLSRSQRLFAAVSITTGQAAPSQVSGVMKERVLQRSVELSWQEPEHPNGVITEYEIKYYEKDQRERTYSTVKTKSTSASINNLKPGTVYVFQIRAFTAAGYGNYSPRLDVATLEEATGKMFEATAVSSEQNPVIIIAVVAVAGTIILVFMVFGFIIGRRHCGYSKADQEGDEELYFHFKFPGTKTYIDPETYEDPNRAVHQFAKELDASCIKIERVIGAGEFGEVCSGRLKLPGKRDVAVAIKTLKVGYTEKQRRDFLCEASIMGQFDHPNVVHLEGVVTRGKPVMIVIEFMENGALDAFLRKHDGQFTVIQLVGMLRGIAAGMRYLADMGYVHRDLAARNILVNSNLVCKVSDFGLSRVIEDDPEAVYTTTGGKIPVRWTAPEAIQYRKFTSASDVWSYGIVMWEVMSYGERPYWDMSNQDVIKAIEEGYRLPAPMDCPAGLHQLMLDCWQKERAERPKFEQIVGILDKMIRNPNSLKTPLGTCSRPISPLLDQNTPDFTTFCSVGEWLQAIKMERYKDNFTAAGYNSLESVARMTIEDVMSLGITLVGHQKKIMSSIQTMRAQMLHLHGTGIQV
# 3-phosphoinositide-dependent protein kinase 1 (Homo sapiens), sequence (O15530 whole entry): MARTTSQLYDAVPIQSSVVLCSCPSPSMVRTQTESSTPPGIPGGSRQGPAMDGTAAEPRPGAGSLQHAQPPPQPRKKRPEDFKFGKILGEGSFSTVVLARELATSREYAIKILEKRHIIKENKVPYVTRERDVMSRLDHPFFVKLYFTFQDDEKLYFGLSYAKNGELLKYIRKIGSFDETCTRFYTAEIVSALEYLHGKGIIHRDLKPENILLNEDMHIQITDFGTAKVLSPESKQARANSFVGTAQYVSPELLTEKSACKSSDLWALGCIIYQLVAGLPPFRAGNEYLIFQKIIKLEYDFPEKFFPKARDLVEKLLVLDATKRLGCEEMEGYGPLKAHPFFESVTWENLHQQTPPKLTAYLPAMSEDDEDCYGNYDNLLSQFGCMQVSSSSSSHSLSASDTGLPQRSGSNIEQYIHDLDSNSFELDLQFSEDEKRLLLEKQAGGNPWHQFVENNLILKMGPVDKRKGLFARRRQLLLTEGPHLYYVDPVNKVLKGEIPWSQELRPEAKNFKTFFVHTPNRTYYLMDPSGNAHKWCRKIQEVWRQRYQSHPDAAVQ
# Activin receptor type-1 (Homo sapiens), sequence (Q04771 whole entry): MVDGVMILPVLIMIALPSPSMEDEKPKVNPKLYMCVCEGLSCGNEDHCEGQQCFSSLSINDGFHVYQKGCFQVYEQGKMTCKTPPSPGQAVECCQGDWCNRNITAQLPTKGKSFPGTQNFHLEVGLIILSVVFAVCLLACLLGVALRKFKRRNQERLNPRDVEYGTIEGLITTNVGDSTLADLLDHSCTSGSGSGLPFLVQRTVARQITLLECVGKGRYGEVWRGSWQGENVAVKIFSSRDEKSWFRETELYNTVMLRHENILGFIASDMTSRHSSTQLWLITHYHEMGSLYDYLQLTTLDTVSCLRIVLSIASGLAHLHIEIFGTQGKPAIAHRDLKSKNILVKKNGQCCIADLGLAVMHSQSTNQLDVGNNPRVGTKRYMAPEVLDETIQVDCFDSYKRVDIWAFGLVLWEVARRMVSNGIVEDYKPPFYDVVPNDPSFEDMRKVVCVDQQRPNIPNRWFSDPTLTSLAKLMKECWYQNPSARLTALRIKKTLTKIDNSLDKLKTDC
# Homeodomain-interacting protein kinase 4 (Homo sapiens), sequence (Q8NE63 whole entry): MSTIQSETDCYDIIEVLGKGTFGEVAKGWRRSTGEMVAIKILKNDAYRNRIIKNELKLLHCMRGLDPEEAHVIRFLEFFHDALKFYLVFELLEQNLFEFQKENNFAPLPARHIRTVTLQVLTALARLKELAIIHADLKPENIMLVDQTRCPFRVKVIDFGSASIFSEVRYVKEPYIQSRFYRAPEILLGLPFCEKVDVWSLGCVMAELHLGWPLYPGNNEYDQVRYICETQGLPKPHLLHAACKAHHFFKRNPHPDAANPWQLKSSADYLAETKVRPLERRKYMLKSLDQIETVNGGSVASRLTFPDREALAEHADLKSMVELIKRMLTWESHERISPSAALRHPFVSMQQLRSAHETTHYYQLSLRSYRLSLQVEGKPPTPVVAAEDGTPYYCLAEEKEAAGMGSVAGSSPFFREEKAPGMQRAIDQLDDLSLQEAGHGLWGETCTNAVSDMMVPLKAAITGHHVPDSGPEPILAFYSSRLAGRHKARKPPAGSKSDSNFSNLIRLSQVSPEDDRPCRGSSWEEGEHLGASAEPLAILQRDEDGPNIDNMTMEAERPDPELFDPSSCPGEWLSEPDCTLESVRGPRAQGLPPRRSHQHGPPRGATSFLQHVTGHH
# Cyclin-dependent kinase 8 (Homo sapiens), sequence (P49336 whole entry): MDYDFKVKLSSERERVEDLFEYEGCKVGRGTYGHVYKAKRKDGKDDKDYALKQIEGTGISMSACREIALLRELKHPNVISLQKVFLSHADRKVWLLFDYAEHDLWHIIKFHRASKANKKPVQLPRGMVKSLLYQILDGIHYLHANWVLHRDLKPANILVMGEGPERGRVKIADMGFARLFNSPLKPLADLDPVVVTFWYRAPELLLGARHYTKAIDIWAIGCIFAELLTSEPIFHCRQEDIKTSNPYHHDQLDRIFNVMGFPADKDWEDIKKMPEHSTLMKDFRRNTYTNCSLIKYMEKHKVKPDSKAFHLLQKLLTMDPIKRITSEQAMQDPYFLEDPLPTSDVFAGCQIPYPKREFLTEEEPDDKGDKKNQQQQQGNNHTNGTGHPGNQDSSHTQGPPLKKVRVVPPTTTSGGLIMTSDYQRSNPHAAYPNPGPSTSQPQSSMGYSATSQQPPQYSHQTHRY
# Serine/threonine-protein kinase 32C (Homo sapiens), sequence (Q86UX6 whole entry): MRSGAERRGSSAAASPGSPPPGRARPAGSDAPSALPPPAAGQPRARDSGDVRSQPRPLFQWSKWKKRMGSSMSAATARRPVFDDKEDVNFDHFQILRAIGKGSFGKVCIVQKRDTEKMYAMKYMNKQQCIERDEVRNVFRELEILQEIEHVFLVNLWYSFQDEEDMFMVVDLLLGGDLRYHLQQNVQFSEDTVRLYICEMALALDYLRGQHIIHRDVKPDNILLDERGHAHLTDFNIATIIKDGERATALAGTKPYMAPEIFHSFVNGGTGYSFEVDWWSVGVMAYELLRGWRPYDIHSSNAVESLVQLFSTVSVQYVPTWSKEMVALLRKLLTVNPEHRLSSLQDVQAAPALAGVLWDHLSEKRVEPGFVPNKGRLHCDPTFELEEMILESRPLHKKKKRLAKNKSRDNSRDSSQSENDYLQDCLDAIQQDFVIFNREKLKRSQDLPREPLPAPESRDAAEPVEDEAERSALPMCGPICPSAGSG
# cAMP-dependent protein kinase catalytic subunit PRKX (Homo sapiens), sequence (P51817 whole entry): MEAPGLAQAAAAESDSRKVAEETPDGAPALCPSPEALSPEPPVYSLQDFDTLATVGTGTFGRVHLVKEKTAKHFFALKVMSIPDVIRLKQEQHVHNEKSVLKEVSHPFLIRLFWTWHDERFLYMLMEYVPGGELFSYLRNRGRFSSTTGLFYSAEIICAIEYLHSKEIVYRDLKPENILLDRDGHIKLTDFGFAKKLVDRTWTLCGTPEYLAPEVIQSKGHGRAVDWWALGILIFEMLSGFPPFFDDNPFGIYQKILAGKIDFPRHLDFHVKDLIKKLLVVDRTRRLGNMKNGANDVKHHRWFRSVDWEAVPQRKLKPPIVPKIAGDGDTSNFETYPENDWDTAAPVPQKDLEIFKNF
compound,measurement,setting,value
CN(C)c1ncnc(-c2ccc3nc(Nc4cc(CN5CCN(C(=O)CC(F)(F)F)CC5)ccn4)[nH]c3c2)c1Cl [BAY-440],residual activity,[1]; [46],74%
same,inhibition,[2],20.8%
same,residual activity,[3]; [46],71%
same,residual activity,[4]; [46],47%
same,residual activity,[5]; [46],86%
same,residual activity,[6]; [46],100%
same,residual activity,[7]; [46],100%
same,residual activity,[8]; [46],1.8%
same,residual activity,[9]; [46],100%
same,residual activity,[10]; [46],76%
same,residual activity,[11]; [46],88%
same,residual activity,[12]; [46],90%
same,inhibition,[13],10.6%
same,residual activity,[14]; [46],100%
same,residual activity,[15]; [46],50%
same,inhibition,[16],12.8%
same,residual activity,[17]; [46],44%
same,residual activity,[18]; [46],100%
same,residual activity,[19]; [46],100%
same,residual activity,[20]; [46],24%
same,residual activity,[21]; [46],4.2%
same,residual activity,[22]; [46],100%
same,residual activity,[23]; [46],100%
same,residual activity,[24]; [46],74%
same,residual activity,[25]; [46],37%
same,residual activity,[26]; [46],84%
same,residual activity,[27]; [46],100%
same,residual activity,[28]; [46],92%
same,residual activity,[29]; [46],100%
same,residual activity,[30]; [46],100%
same,residual activity,[31]; [46],96%
same,residual activity,[32]; [46],22%
same,residual activity,[33]; [46],78%
same,residual activity,[34]; [46],92%
same,residual activity,[35]; [46],43%
same,residual activity,[36]; [46],29%
same,residual activity,[37]; [46],43%
same,residual activity,[38]; [46],100%
same,residual activity,[39]; [46],100%
same,residual activity,[40]; [46],95%
same,residual activity,[41]; [46],75%
same,residual activity,[42]; [46],100%
same,residual activity,[43]; [46],87%
same,residual activity,[44]; [46],87%
same,residual activity,[45]; [46],100%
C[C@H](c1ccnc(Nc2nc3ccc(-c4cc(N(C)C)ncn4)cc3[nH]2)c1)N1CCN(C(=O)CC(F)(F)F)CC1 [BAY-985],residual activity,[1]; [47],95%
same,inhibition,[2],20.2%
same,residual activity,[3]; [47],100%
same,residual activity,[4]; [47],85%
same,residual activity,[5]; [47],100%
same,residual activity,[6]; [47],100%
same,residual activity,[7]; [47],100%
same,residual activity,[8]; [47],8.5%
same,residual activity,[9]; [47],99%
same,residual activity,[10]; [47],96%
same,residual activity,[11]; [47],100%
same,residual activity,[12]; [47],96%
same,inhibition,[13],5.66%
same,residual activity,[14]; [47],100%
same,residual activity,[15]; [47],90%
same,inhibition,[16],11.9%
same,residual activity,[17]; [47],100%
same,residual activity,[18]; [47],100%
same,residual activity,[19]; [47],98%
same,residual activity,[20]; [47],2.4%
same,residual activity,[21]; [47],79%
same,residual activity,[22]; [47],100%
same,residual activity,[23]; [47],100%
same,residual activity,[24]; [47],100%
same,residual activity,[25]; [47],86%
same,residual activity,[26]; [47],100%
same,residual activity,[27]; [47],100%
same,residual activity,[28]; [47],98%
same,residual activity,[29]; [47],100%
same,residual activity,[30]; [47],96%
same,residual activity,[31]; [47],31%
same,residual activity,[32]; [47],94%
same,residual activity,[33]; [47],100%
same,residual activity,[34]; [47],100%
same,residual activity,[35]; [47],100%
same,residual activity,[36]; [47],100%
same,residual activity,[37]; [47],100%
same,residual activity,[38]; [47],100%
same,residual activity,[39]; [47],76%
same,residual activity,[40]; [47],97%
same,residual activity,[41]; [47],95%
same,residual activity,[42]; [47],99%
same,residual activity,[43]; [47],100%
same,residual activity,[44]; [47],100%
same,residual activity,[45]; [47],100%
